Test results reported in patent US8877707B2, “Inhibitors of HCV NS5A” (Presidio Pharmaceuticals, Inc., priority 2010, dated 2014).
pEC50: −log10 of the molar value. Like-named read-outs stand apart in the source and are kept apart here.

Test system: HCV genotype 1b replicon in Huh 7 cells
Experiment: HCV replicon assay (1b_Huh-Luc/Neo-ET cell line, luciferase readout)
Type: cell-based
Conditions: Hepatitis C virus, read-out: Inhibition of HCV genotype 1b
In short: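 Replicon level was read as luciferase signal after 72 h compound exposure, triplicate wells, starting the day after cells were plated. Cell line: 1b_Huh-Luc/Neo-ET. Values normalised to control as percent, and EC50 fitted with a variable-slope sigmoid; determinations repeated.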

[1] = Table 1, genotype 1b replicon, Huh 7 cells, 72 h, luciferase
[2] = Table 2, genotype 1b replicon, Huh 7 cells, 72 h, luciferase

Row | Compound | pEC50 [1] | further results
1 | COC(=O)N[C@@H](C(=O)N1CCC[C@H]1C(=O)Nc1ccc(-c2ccc3cc(-c4cnc([C@@H]5CCCN5C(=O)[C@H](NC(=O)OC)c5ccccc5)[nH]4)ccc3n2)cc1)c1ccccc1 [compound 543] |  | pEC50 (Huh-7, HCV 1b replicon): > 9.00
2 | CNC(=O)N[C@@H](C(=O)N1CCC[C@H]1c1ncc(-c2ccc(-c3nc4ccc(-c5cnc([C@@H]6CCCN6C(=O)[C@@H](NC(=O)OC)C(C)C)[nH]5)cc4o3)cc2)[nH]1)c1ccccc1 [compound 256] | > 9.00 | 
3 | COC(=O)N[C@H](C(=O)N1CCC[C@H]1c1nc(-c2ccc3cc(-c4ccc(-c5cnc([C@@H]6CCCN6C(=O)[C@@H](NC(=O)OC6CCOCC6)c6ccccc6)[nH]5)cc4)ccc3c2)c[nH]1)C1CCOCC1 [compound 112] | > 9.00 | 
4 | COC(=O)N[C@H](C(=O)N1CCC[C@H]1c1ncc(-c2ccc3cc(-c4ccc5nc([C@@H]6CCCN6C(=O)[C@@H](NC(=O)OC)C(C)C)[nH]c5n4)ccc3c2)[nH]1)C(C)C [compound 198] | > 9.00 | 
5 | COC(=O)N[C@@H](C)C(=O)N1CCC[C@H]1c1ncc(-c2ccc3cc(-c4ccc(-c5cnc([C@@H]6CCCN6C(=O)[C@H](NC(=O)OC)c6ccccc6)[nH]5)nn4)ccc3c2)[nH]1 [compound 499] |  | pEC50 (Huh-7, HCV 1b replicon): > 9.00
6 | COC(=O)N[C@H](C(=O)N1CCC[C@H]1c1nc(-c2ccc3cc(-c4ccc(-c5cnc([C@@H]6CCCN6C(=O)[C@@H](NC(=O)OC)[C@@H](C)O)[nH]5)cc4)ccc3c2)c[nH]1)[C@@H](C)O [compound 4] | > 9.00 | 
7 | COC[C@H](NC(=O)OC)C(=O)N1CCC[C@H]1c1ncc(-c2ccc3cc(-c4ccc5nc([C@@H]6CCCN6C(=O)[C@@H](NC(=O)OC)C(C)C)[nH]c5c4)ccc3c2)[nH]1 [compound 513] |  | pEC50 (Huh-7, HCV 1b replicon): > 9.00
8 | COC(=O)N[C@H](C(=O)N1CCC[C@H]1c1ncc(-c2ccc3cc(-c4ccc(-c5cnc([C@@H]6COCCN6C(=O)[C@H](NC(=O)OC)c6ccccc6)[nH]5)cc4)ccc3c2)[nH]1)[C@@H](C)O [compound 324] |  | pEC50 [2]: > 9.00
9 | COC[C@H](NC(=O)OC)C(=O)N1CCC[C@H]1c1ncc(-c2ccc3cc(-c4ccc(-c5cnc([C@@H]6COCCN6C(=O)[C@@H](NC(=O)OC)c6ccccc6)[nH]5)cc4)ccc3c2)[nH]1 [compound 462] |  | pEC50 (Huh-7, HCV 1b replicon): > 9.00
10 | COC(=O)N[C@H](C(=O)N1CCC[C@H]1c1ncc(-c2ccc3cc(-c4ccc5nc([C@@H]6COCCN6C(=O)[C@@H](NC(=O)OC)[C@@H](C)O)[nH]c5c4)ccc3c2)[nH]1)[C@@H](C)O [compound 355] |  | pEC50 [2]: > 9.00
11 | COC(=O)N[C@H](C(=O)N1CCC[C@H]1c1ncc(-c2ccc3nc(-c4ccc(-c5cnc([C@@H]6CN(C(C)=O)CCN6C(=O)[C@@H](NC(=O)OC)C(C)C)[nH]5)cc4)ccc3c2)[nH]1)C(C)C [compound 493] |  | pEC50 (Huh-7, HCV 1b replicon): > 9.00
12 | COC(=O)N[C@H](C(=O)N1CCC[C@H]1c1nc(-c2ccc3nc(-c4ccc(-c5cnc([C@@H]6CCCN6C(=O)[C@@H](NC(=O)OC)C6CCOCC6)[nH]5)cc4F)ccc3c2)c[nH]1)C1CCOCC1 [compound 98] | > 9.00 | 
13 | COC(=O)N[C@H](C(=O)N1CCN(C(C)=O)C[C@H]1c1ncc(-c2ccc(-c3ccc4cc(-c5cnc([C@@H]6CCCN6C(=O)[C@@H](NC(=O)OC)C6CCOCC6)[nH]5)ccc4n3)cc2)[nH]1)C(C)C [compound 495] |  | pEC50 (Huh-7, HCV 1b replicon): > 9.00
14 | COC(=O)N[C@H](C(=O)N1CCC[C@H]1c1ncc(-c2ccc(-c3ccc4cc(-c5c[nH]c([C@@H]6CCCN6C(=O)[C@@H](NC(=O)OC)C6CCOCC6)n5)cnc4c3)cc2)[nH]1)C(C)C [compound 50] | > 9.00 | 
15 | COC(=O)N[C@H](C(=O)N1CCC[C@H]1c1nc(-c2cnc3cc(-c4ccc(-c5cnc([C@@H]6CCCN6C(=O)[C@@H](NC(=O)OC)C(C)C)[nH]5)cn4)ccc3c2)c[nH]1)C(C)C [compound 74] | > 9.00 | 
16 | [2H]C([2H])([2H])C([2H])(C([2H])([2H])[2H])[C@@]([2H])(NC(=O)OC)C(=O)N1CCC[C@H]1c1ncc(-c2ccc3nc(-c4ccc(-c5cnc([C@@H]6CCCN6C(=O)[C@@H](NC(=O)OC)C6CCOCC6)[nH]5)cc4F)ccc3c2)[nH]1 [compound 158] | > 9.00 | 
17 | CC[C@@H](C)[C@H](NC(=O)OC)C(=O)N1CCC[C@H]1c1ncc(-c2ccc3nc(-c4ccc5nc([C@@H]6CCCN6C(=O)[C@@H](NC(=O)OC)[C@H](C)CC)[nH]c5c4)ccc3c2)[nH]1 [compound 384] |  | pEC50 [2]: > 9.00
18 | COC(=O)N[C@H](C(=O)N1CCC[C@H]1c1ncc(-c2ccc(-c3ccc4cc(-c5cnc([C@@H]6COCCN6C(=O)[C@H](NC(=O)OC)c6ccccc6)[nH]5)ccc4c3)cc2)[nH]1)C(C)C [compound 132] | > 9.00 | 
19 | COC(=O)N[C@H](C(=O)N1CCOC[C@H]1c1ncc(-c2ccc3cc(-c4ccc5nc([C@@H]6COCCN6C(=O)[C@@H](NC(=O)OC)C(C)C)[nH]c5c4)ccc3c2)[nH]1)C(C)C [compound 224] | > 9.00 | 
20 | COC(=O)N[C@H](C(=O)N1CCC[C@H]1c1nc(-c2ccc3cc(-c4ccc(-c5cnc([C@@H]6CCCN6C(=O)[C@H](NC(=O)OC6CCOCC6)c6ccccc6)[nH]5)cc4)ccc3c2)c[nH]1)C1CCOCC1 [compound 113] | > 9.00 | 

Row | Compound | pEC50 [1] | further results
21 | COC(=O)N[C@@H](C(=O)N1CCC[C@H]1CNC(=O)c1cnc2cc(-c3ccc4c(ccc5nc([C@@H]6CCCN6C(=O)[C@H](NC(=O)OC)c6ccccc6)[nH]c54)c3)ccc2c1)c1ccccc1 [compound 551] |  | pEC50 (Huh-7, HCV 1b replicon): > 9.00
22 | COC(=O)N[C@H](C(=O)N1CCC[C@H]1c1ncc(-c2ccc(-c3nc4cc(-c5cnc([C@@H]6CCCN6C(=O)[C@H](NC(=O)OC)c6ccccc6)[nH]5)ccc4s3)cc2)[nH]1)C(C)C [compound 536] |  | pEC50 (Huh-7, HCV 1b replicon): > 9.00
23 | COC(=O)N[C@H](C(=O)N1CCC[C@H]1c1ncc(-c2ccc3cc(-c4ccc5nc([C@@H]6CCCN6C(=O)[C@@H](NC(=O)OC)C(C)C)[nH]c5c4)ccc3n2)[nH]1)C(C)C [compound 209] | > 9.00 | 
24 | COC(=O)N[C@@H](C(=O)N1CCC[C@H]1c1nc(-c2ccc3c(=O)n(-c4ccc(-c5cnc([C@@H]6CCCN6C(=O)[C@H](NC(=O)OC)c6ccccc6)[nH]5)cc4)ccc3c2)c[nH]1)c1ccccc1 [compound 288] | > 9.00 | 
25 | CNC(=O)N[C@@H](C(=O)N1CCC[C@H]1c1ncc(-c2ccc3cc(-c4ccc5nc([C@@H]6CCCN6C(=O)[C@@H](NC(=O)OC)C(C)C)[nH]c5c4)ccc3c2)[nH]1)c1ccccc1 [compound 186] | > 9.00 | 
26 | COC(=O)N[C@H](C(=O)N1CCC[C@H]1c1ncc(-c2ccc3nc(-c4ccc5nc([C@@H]6CCCN6C(=O)[C@@H](NC(=O)OC)[C@@H](C)OC)[nH]c5c4)ccc3c2)[nH]1)[C@@H](C)OC [compound 386] |  | pEC50 [2]: > 9.00
27 | COC(=O)N[C@H](C(=O)N1CCC[C@H]1c1ncc(-c2ccc3cc(-c4ccc(-c5cnc([C@@H]6CCCN6C(=O)[C@H](NC(=O)OC)c6ccccc6)[nH]5)cc4)ccc3c2)[nH]1)[C@@H](C)OC [compound 115] | > 9.00 | 
28 | COC(=O)N[C@H](C(=O)N1CCC[C@H]1c1nc(-c2ccc3cc(-c4ccc(-c5cnc([C@@H]6CCCN6C(=O)[C@H](NC(=O)OC)c6ccccc6)[nH]5)cc4F)ccc3c2)c[nH]1)C(C)C [compound 64] | > 9.00 | 
29 | COC(=O)N[C@H](C(=O)N1CCC[C@H]1c1ncc(-c2ccc(-c3ccc4cc(-c5cnc([C@@H]6CCCN6C(=O)[C@@H](NC(=O)OC)C6CCOCC6)[nH]5)ccc4c3)cc2)[nH]1)C1CCOCC1 [compound 133] | > 9.00 | 
30 | COC(=O)N[C@H](C(=O)N1CCC[C@H]1c1ncc(-c2ccc(-c3ccc4cc(-c5c[nH]c([C@@H]6CCCN6C(=O)[C@H](NC(=O)OC)c6ccccc6)n5)ccc4c3)cc2)[nH]1)C(C)C [compound 7] | > 9.00 | 
31 | CC[C@H](NC(=O)OC)C(=O)N1CCC[C@H]1c1ncc(-c2ccc3cc(-c4ccc5nc([C@@H]6CCCN6C(=O)[C@H](CC)NC(=O)OC)[nH]c5c4)ccc3c2)[nH]1 [compound 226] | > 9.00 | 
32 | CC[C@H](C)[C@H](NC(=O)OC)C(=O)N1CCC[C@H]1c1ncc(-c2ccc3nc(-c4ccc(-c5cnc([C@@H]6CCCN6C(=O)[C@H](NC(=O)OC)c6ccccc6)[nH]5)cc4)ccc3c2)[nH]1 [compound 492] |  | pEC50 (Huh-7, HCV 1b replicon): > 9.00
33 | COC(=O)N[C@H](C(=O)N1CCC[C@H]1c1ncc(-c2ccc3nc(-c4ccc5nc([C@@H]6CCCN6C(=O)[C@@H](NC(=O)OC)C6CCCC6)[nH]c5c4)ccc3c2)[nH]1)C1CCCC1 [compound 381] |  | pEC50 [2]: > 9.00
34 | COC(=O)N[C@H](C(=O)N1CCC[C@H]1c1nc(-c2ccc3c(c2)CCN(c2c(F)cc(-c4cnc([C@@H]5CCCN5C(=O)[C@@H](NC(=O)OC)C(C)C)[nH]4)cc2F)C3)c[nH]1)C(C)C [compound 269] | > 9.00 | 
35 | COC(=O)N[C@H](C(=O)N1CCC[C@H]1C(=O)N[C@@H](C)c1ccc(-c2ccc3cc(-c4cnc([C@@H]5CCCN5C(=O)[C@@H](NC(=O)OC)C5CCOCC5)[nH]4)ccc3c2)cc1)C1CCOCC1 [compound 559] |  | pEC50 (Huh-7, HCV 1b replicon): > 9.00
36 | COC(=O)N[C@H](C(=O)N1CCC[C@H]1c1ncc(-c2ccc3cc(-c4cnc5nc([C@@H]6CCCN6C(=O)[C@@H](NC(=O)OC)C6CCCCC6)[nH]c5c4)ccc3c2)[nH]1)C1CCCCC1 [compound 409] |  | pEC50 [2]: > 9.00
37 | COC(=O)N[C@H](C(=O)N1CCC[C@H]1c1ncc(-c2cnc3cc(-c4ccc(-c5cnc([C@@H]6CCCN6C(=O)[C@@H](NC(=O)OC)[C@@H](C)OC)[nH]5)cc4)ccc3c2)[nH]1)C(C)C [compound 488] |  | pEC50 (Huh-7, HCV 1b replicon): > 9.00
38 | CCC(CC)[C@H](NC(=O)OC)C(=O)N1CCC[C@H]1c1ncc(-c2ccc3nc(-c4ccc5nc([C@@H]6CCCN6C(=O)[C@@H](NC(=O)OC)C(CC)CC)[nH]c5c4)ccc3c2)[nH]1 [compound 382] |  | pEC50 [2]: > 9.00
39 | CCNC(=O)N[C@@H](C(=O)N1CCC[C@H]1c1ncc(-c2ccc3nc(-c4ccc(-c5cnc([C@@H]6CCCN6C(=O)[C@@H](NC(=O)OC)C(C)C)[nH]5)cc4)sc3c2)[nH]1)c1ccccc1 [compound 244] | > 9.00 | 
40 | COC(=O)N[C@H](C(=O)N1CCC[C@H]1c1nc2ccc(-c3ccc4nc(-c5cnc([C@@H]6CCCN6C(=O)[C@@H](NC(=O)OC)C6CCOCC6)[nH]5)ccc4c3)cc2[nH]1)C(C)C [compound 211] | > 9.00 | 
